Values of other authors as cited in article PMC7544826 (Communications Biology, 2020).

Key:
adenosine receptors = settings: through the adenosine receptors; cited from earlier work
brain = settings: at plasma concentration 150 µM; cited from earlier work

## Cn1c(=O)c2c(ncn2C)n(C)c1=O [caffeine, 1,3,7-trimethylxanthine]
Adenosine receptors
  Concentration at which CNS stimulating effects are apparent: 2.5 µM
brain
  Adverse effects on the brain: does not appear to have adverse effects on the brain
